In the supplement of paper PMC11061612:

Experiments:
Experiment in all cases: Bliss excess, mean over the matrix (fraction); higher = more synergy
[1] = test system: C-4-I (Cervical Carcinoma)
In short: (§1)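 Cell lines grown in DMEM/F12 or RPMI with 10% FBS were plated in 1536-well plates and held 24 hours at 37°C, 5% CO2 before 72 hours of exposure to two-drug dose matrices, with DMSO typically at 0.2%. CellTiter-Glo 2.0 luminescence gave viability, which was converted to inhibition. Vehicle wells were set to 0 and blank wells to 1. Combination Emax is the second-highest inhibition in the matrix, and Bliss excess is the observed combination effect minus the expected EA + EB − EA·EB, where EA and EB are the single-agent effects.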

[2] = test system: LU-65 (Non-Small Cell Lung Carcinoma)
In short: as §1

[3] = test system: PANC-04-03 (Pancreatic Carcinoma)
In short: as §1

[4] = test system: OVCAR-4 (Ovarian Carcinoma)
In short: as §1

[5] = test system: HOP-62 (Lung Adenocarcinoma)
In short: as §1

[6] = test system: KMOE-2 (Acute Myeloid Leukemia)
In short: as §1

[7] = test system: HGC-27 (Gastric Carcinoma)
In short: as §1

[8] = test system: NUGC-3 (Gastric Carcinoma)
In short: as §1

[9] = test system: BT-549 (Breast Carcinoma)
In short: as §1

[10] = test system: SU8686 (Pancreatic Carcinoma)
In short: as §1

[11] = test system: PWR-1E (Non-Cancerous)
In short: as §1

[12] = test system: MIA-PaCa-2 (Pancreatic Carcinoma)
In short: as §1

[13] = test system: NEC8 (Other Solid Carcinomas)
In short: as §1

[14] = test system: NCI-H1915 (Non-Small Cell Lung Carcinoma)
In short: as §1

[15] = test system: EFM-19 (Breast Carcinoma)
In short: as §1

[16] = test system: SW13 (Other Solid Carcinomas)
In short: as §1

[17] = test system: NCI-H358 (Lung Adenocarcinoma)
In short: as §1

[18] = test system: VA-ES-BJ (Other Solid Carcinomas)
In short: as §1

[19] = test system: MLMA (Other Blood Carcinomas)
In short: as §1

[20] = test system: Hs-766T (Pancreatic Carcinoma)
In short: as §1

Row | Compound | Bliss excess [1] | Bliss excess [2] | Bliss excess [3] | Bliss excess [4] | Bliss excess [5] | Bliss excess [6] | Bliss excess [7] | Bliss excess [8] | Bliss excess [9] | Bliss excess [10] | Bliss excess [11] | Bliss excess [12] | Bliss excess [13] | Bliss excess [14] | Bliss excess [15] | Bliss excess [16] | Bliss excess [17] | Bliss excess [18] | Bliss excess [19] | Bliss excess [20]
1 | C[C@@H]1COCCN1c1cc(C2([S@](C)(=N)=O)CC2)nc(-c2ccnc3[nH]ccc23)n1 [AZD6738] + O=C(c1cc(Cc2n[nH]c(=O)c3ccccc23)ccc1F)N1CCN(C(=O)C2CC2)CC1 [Olaparib] (first compound max 10 µM, 7x7, partner max 10 µM) | -0.0144 | 0.0026 | 0.0066 | 0.0035 | 0.0092 | 0.0413 | 0.0231 | -0.0296 | 0.0032 | -0.0231 | -0.0632 | -0.016 | 0.0254 | -0.0182 | 0.0141 | 0.0093 | -0.0276 | -0.0692 | -0.15 | -0.0039
2 | CCN(CCO)CCCOc1ccc2c(Nc3cc(CC(=O)Nc4cccc(F)c4)[nH]n3)ncnc2c1 [AZD2811] + C=CCn1c(=O)c2cnc(Nc3ccc(N4CCN(C)CC4)cc3)nc2n1-c1cccc(C(C)(C)O)n1 [AZD1775] (first compound max 1 µM, partner max 1 µM) | 0.0264 | -0.0557 | -0.0441 | 0.0107 | -0.0287 | -0.0181 | -0.0176 | 0.0104 | 0.017 | -0.0166 | 0.118 | 0.0756 | 0.0471 | 0.0056 | -0.0269 | 0.0821 | -0.0312 | 0.0263 | 0.0432 | -0.0445
3 | COc1nnc2ccc(N3CCC(c4ccc(OCCN5CCN(C)C(=O)[C@H]5C)cc4)CC3)nn12 [AZD5153] + CCN(CCO)CCCOc1ccc2c(Nc3cc(CC(=O)Nc4cccc(F)c4)[nH]n3)ncnc2c1 [AZD2811] (first compound max 1 µM, 7x7, partner max 1 µM) | 0.0165 | -0.0399 | -0.0667 | -0.0568 | -0.0853 | -0.0176 | -0.102 | -0.0372 | -0.0576 | -0.0309 | -0.0096 | 0.0109 | -0.0072 | -0.0764 | -0.0262 | -0.0368 | -0.0479 | -0.0342 | -0.0434 | -0.0263
4 | CC(=O)Nc1cccc(-n2c(=O)n(C3CC3)c(=O)c3c(Nc4ccc(I)cc4F)n(C)c(=O)c(C)c32)c1 [Trametinib] + Cc1nc(-c2cn3c(n2)-c2ccc(-c4cnn(C(C)(C)C(N)=O)c4)cc2OCC3)n(C(C)C)n1 [Taselisib] (first compound max 1 µM, 7x7, partner max 10 µM) | 0.229 | 0.0994 | 0.101 | 0.104 | 0.0978 | 0.066 | -0.062 | 0.104 | 0.0203 | 0.094 | 0.121 | 0.148 | 0.112 | 0.045 | -0.0544 | 0.316 | 0.095 | -0.0328 | -0.036 | 0.0113
5 | COc1cccc(OCCCN)c1-c1cc(Nc2cnc(C#N)cn2)n[nH]1 [Prexasertib] + Cc1cc2ncnn2cc1Nc1ncc2c(n1)n(C1CCOCC1)c(=O)n2C [AZD7648] (first compound max 1 µM, 7x7, partner max 10 µM) | 0.0005 | -0.0099 | -0.0327 | -0.0739 | -0.0063 | 0.0172 | -0.0235 | -0.0129 | -0.0341 | -0.0227 | -0.0243 | -0.0172 | 0 | -0.008 | -0.0676 | 0.0009 | -0.0438 | 0.013 | -0.0204 | 0.0183
6 | CN(C)CCCOc1ccc(-c2ccc3ncc4c(c3c2)n(C2CCOCC2)c(=O)n4C)cn1 [AZD0156] + O=C(c1cc(Cc2n[nH]c(=O)c3ccccc23)ccc1F)N1CCN(C(=O)C2CC2)CC1 [Olaparib] (first compound max 3 µM, partner max 3 µM) | 0.0867 | 0.0033 | 0.0481 | -0.0137 | -0.0249 | 0.0564 | 0.0997 | 0.0093 | -0.0436 | -0.0011 | 0.286 | -0.038 | 0.104 | 0.0032 | 0.0014 | 0.0694 | -0.0175 | -0.0267 | 0.0255 | -0.0741
7 | CC1(C)CCC(CN2CCN(c3ccc(C(=O)NS(=O)(=O)c4ccc(NCC5CCOCC5)c([N+](=O)[O-])c4)c(Oc4cnc5[nH]ccc5c4)c3)CC2)=C(c2ccc(Cl)cc2)C1 [Venetoclax] + C[C@@H](Nc1cc(F)cc(F)c1)c1cc(C(=O)N(C)C)cc2c(=O)cc(N3CCOCC3)oc12 [AZD8186] (first compound max 1 µM, 7x7, partner max 3 µM) | 0.0078 | -0.0235 | -0.0374 | -0.0186 | -0.0412 | -0.0254 | -0.0256 | -0.0192 | -0.0328 | -0.0303 | -0.0112 | -0.0513 | -0.0197 | -0.0264 | -0.0099 | -0.0263 | -0.0521 | -0.0245 | -0.0327 | -0.0487
8 | CC1(C)CCC(CN2CCN(c3ccc(C(=O)NS(=O)(=O)c4ccc(NCC5CCOCC5)c([N+](=O)[O-])c4)c(Oc4cnc5[nH]ccc5c4)c3)CC2)=C(c2ccc(Cl)cc2)C1 [Venetoclax] + CN(C)CCCOc1ccc(-c2ccc3ncc4c(c3c2)n(C2CCOCC2)c(=O)n4C)cn1 [AZD0156] (first compound max 1 µM, 7x7, partner max 1 µM) | 0.0229 | 0.0173 | -0.062 | -0.0338 | -0.0677 | -0.0291 | 0.0396 | -0.0035 | -0.0049 | -0.0036 | 0.0005 | 0.0184 | 0.0105 | -0.018 | -0.0184 | 0.027 | -0.0146 | -0.0204 | 0.0062 | -0.0841
9 | COc1nnc2ccc(N3CCC(c4ccc(OCCN5CCN(C)C(=O)[C@H]5C)cc4)CC3)nn12 [AZD5153] + Cc1c2c(nn1C)CSCc1cc(n(C)n1)CSc1cc(c3ccccc3c1)OCCCc1c(C(=O)O)n(C)c3c-2c(Cl)ccc13 [AZD5991] (first compound max 1 µM, 7x7, partner max 1 µM) | 0.0867 | -0.0445 | -0.0038 | -0.0152 | -0.0482 | -0.0322 | -0.0471 | -0.0233 | 0.0452 | -0.0221 | 0.0557 | 0.0438 | 0.0672 | -0.0343 | 0.059 | 0.0258 | -0.059 | -0.0174 | -0.0085 | -0.0369
10 | CN(C)CCCOc1ccc(-c2ccc3ncc4c(c3c2)n(C2CCOCC2)c(=O)n4C)cn1 [AZD0156] + C=CCn1c(=O)c2cnc(Nc3ccc(N4CCN(C)CC4)cc3)nc2n1-c1cccc(C(C)(C)O)n1 [AZD1775] (first compound max 1 µM, partner max 1 µM) | -0.0175 | -0.0032 | -0.0836 | -0.0368 | -0.0403 | -0.039 | 0.0088 | -0.0369 | -0.0986 | -0.0231 | 0.0144 | -0.0303 | 0.0183 | -0.0572 | -0.0295 | -0.0449 | 0.0011 | -0.0235 | -0.0081 | -0.0232
11 | NC1(C(=O)N[C@@H](CCO)c2ccc(Cl)cc2)CCN(c2ncnc3[nH]ccc23)CC1 [Capivasertib] + C[C@@H]1COCCN1C2=NC(=NC(=C2)C3(CC3)[S@](=N)(=O)C)C4=C5C=CNC5=NC=C4 [AZD6738] (first compound max 10 µM, 7x7, partner max 10 µM) | 0.0234 | -0.137 | -0.0322 | -0.0267 | -0.0695 | -0.0336 | -0.0182 | -0.0639 | -0.0724 | -0.032 | -0.0534 | -0.04 | 0.0288 | -0.081 | -0.0072 | -0.049 | -0.0896 | -0.0088 | -0.0719 | -0.02
12 | COc1nnc2ccc(N3CCC(c4ccc(OCCN5CCN(C)C(=O)[C@H]5C)cc4)CC3)nn12 [AZD5153] + Cn1cnc2c(F)c(Nc3ccc(Br)cc3Cl)c(C(=O)NOCCO)cc21 [Selumetinib] (first compound max 1 µM, 7x7, partner max 10 µM) | 0.0398 | 0.031 | -0.0358 | -0.0214 | -0.0724 | 0.0402 | -0.083 | -0.0071 | -0.0019 | -0.0166 | -0.0044 | -0.0371 | 0.0165 | -0.0186 | -0.0565 | 0.0304 | -0.0409 | -0.0155 | -0.0447 | -0.0627
13 | C=CCn1c(=O)c2cnc(Nc3ccc(N4CCN(C)CC4)cc3)nc2n1-c1cccc(C(C)(C)O)n1 [AZD1775] + C[C@@H]1COCCN1C2=NC(=NC(=C2)C3(CC3)[S@](=N)(=O)C)C4=C5C=CNC5=NC=C4 [AZD6738] (first compound max 1 µM, partner max 10 µM) | 0.0088 | 0.0327 | -0.025 | 0.0352 | 0.0372 | 0.0308 | 0.118 | 0.0683 | 0.0107 | -0.0188 | 0.0106 | 0.12 | 0.163 | -0.0225 | -0.0503 | 0.0169 | -0.0219 | 0.0568 | -0.0079 | -0.0217
14 | CC1(C)CCC(CN2CCN(c3ccc(C(=O)NS(=O)(=O)c4ccc(NCC5CCOCC5)c([N+](=O)[O-])c4)c(Oc4cnc5[nH]ccc5c4)c3)CC2)=C(c2ccc(Cl)cc2)C1 [Venetoclax] + C[C@@H]1COCCN1C2=NC(=NC(=C2)C3(CC3)[S@](=N)(=O)C)C4=C5C=CNC5=NC=C4 [AZD6738] (first compound max 1 µM, 7x7, partner max 10 µM) | -0.0398 | -0.1 | -0.0168 | -0.0384 | -0.0649 | 0.0071 | -0.0099 | -0.035 | -0.0331 | -0.0285 | -0.0747 | -0.0632 | -0.0293 | -0.0084 | -0.0814 | 0.0075 | -0.0224 | -0.0185 | -0.0275 | -0.0596
